Measurements published in patent publication US6303568A, “Therapeutic antimicrobial polypeptides, their use and methods for preparation” (Helix Biomedix, Inc., priority 1996, dated 2001).
Like-named read-outs stand apart in the source and are kept apart here. Ends that are not written are not given here.

Experiments:
[1] = tested on: E. coli E/2/64; assay: In vitro exposure and plate count, E. coli (Example 3); format: cell-based
Protocol: A known number of viable microorganisms were exposed to a known concentration of the antimicrobial agent for a given time period. Following exposure, the undiluted or diluted microorganisms were plated on solid growth media, e.g., agar plates. The plates were incubated and numbers of organisms determined by making plate counts. Comparisons are then made with the non-treated bacteria for evidence of inhibition, mortality, or both. The following Examples give detailed experimental procedures and results for several microorganisms and antimicrobial agents. […] The E. coli is collected in late log phase growth at which the majority of cells are in growth phase at 18-24 hours. […] The mixtures were incubated at room temperature for 1 hour, and then at 37° C. for 30 minutes. The mixtures were diluted to 10^-1 or 10^-3 with serial dilutions at 7 drops per dilution (10 microliters per drop), plated on agar growth media, which is a tryptose agar. The plates were incubated for 3 days at 37° C. Plate counts were then made and the results given below.

[2] = tested on: Brucella abortus; format: in vivo; conditions: 0.176 milligrams/day intramuscularly for 4 days from 12th day post infection; sacrificed 16th day post infection
[3] = BALB/C mice
Protocol: The safety of antimicrobial agents according to the present invention was tested according to standard procedures in animal studies.
Six BALB/C mice, 4 to 5 weeks of age, maintained on commercial rodent ration fed ad libidum and in general good health were each inoculated with 1.76 milligrams/day of cecropin C-37 in balanced salt solution intramuscularly for 4 consecutive days. No other change was made in diet or conditions. […] At the end of the fourth day, three of the […] were humanely destroyed and examined. After 30 days, 3 of the 6 were given an additional 1.76 milligrams each.
The remaining mice were all killed 7 days after the last inoculation.
Following the procedure above in Part A, three BALB/C mice were given 110 milligrams/kilogram of body weight of cecropin C-37 injected intramuscularly in balanced salt solution for 6 days. White cell counts and differentials were performed on a daily basis. Ten days after the last inoculation, the mice were again injected intramuscularly with 110 milligrams/kilogram of body weight with Cecropin C-37. […] All three mice were killed 7 days after the final inoculation and tissues were examined.

[4] = tested on: Brucella abortus; format: cell-based

Q: Which “Effect on E. coli (growth)” value ([1]; lysozyme itself at 10 micrograms, 1 milligram, and 10 milligrams per milliliter, 10^-1 and 10^-3 dilutions) does the source give for “lysozyme: lysozyme, tested by itself and combined with cecropins” here?
A: Its value is “positive growth”.

Q: Which “Concentration of Brucella abortus in BALB/c Mouse Spleen Tissue After 4 Days Treatment” value [2] does the source give for CN(C)[C@@H]1C(O)=C(C(N)=O)C(=O)[C@@]2(O)C(O)=C3C(=O)c4c(O)cccc4[C@@](C)(O)[C@H]3C[C@@H]12 [Tetracycline, tetracycline] here?
A: Its value is 4.4 × 10^3 per gram of spleen.

Q: With “MPKWKVFKKIEKVGRNIRNGIVKAGPAIAVLGEAKAL-NH2 [Cecropin C-37]” as the compound, how does the “IgG antibody to the antimicrobial agent” value ([3]; 1.76 milligrams/day intramuscularly) read?
A: Its value is “None of these mice produced detectable levels”.

Q: And the adverse reactions ([3]; 1.76 milligrams/day intramuscularly for 4 consecutive days, observed twice daily)?
A: The adverse reactions was “no adverse reactions”.

Q: What about the “gross pathological changes in organs and at injection sites” value ([3]; 1.76 milligrams/day intramuscularly, killed 7 days after last inoculation) of the same compound?
A: Its value is “no gross pathological changes”.

Q: And the “Cecropin C-37 antibodies” value ([3]; 110 milligrams/kilogram intramuscularly)?
A: Its value is “No Cecropin C-37 antibodies were detected”.

Q: What about the adverse effects ([3]; 110 milligrams/kilogram intramuscularly for 6 days, again ten days after) of the same compound?
A: Its adverse effects is “no adverse effects”.

Q: What about the tissue examination ([3]; 110 milligrams/kilogram intramuscularly, killed 7 days after final inoculation) of the same compound?
A: The tissue examination was “enlarged spleens but were otherwise unremarkable”.

Q: What about the adverse reactions ([3]; additional 1.76 milligrams each after 30 days) of the same compound?
A: Its adverse reactions is “No adverse reactions”.

Q: Which “Effect on E. coli (growth)” value ([1]; 5 × 10^-6 molar) does the source give for “KWKVFKKIEKMGRNIRNGIVKAGPAIAVLGEAKAL-NH2 [Cecropin B]” here?
A: The value was “no growth”.

Q: And the “Effect on E. coli (growth)” value ([1]; lower concentrations of 1 nanomolar and 1 micromolar)?
A: Its value is “positive E. coli growth”.

Q: And the “Effect on Brucella abortus (growth)” value [4]?
A: The value was “no growth”.
